System: TP-Lac2
Conditions: 25 mM tartrate buffer, pH 3.5, 50 °C; 0.05-1.5 mM ABTS

- Km: 250 ± 40 µM
SMILES: CCn1c(=NN=c2sc3cc(S(=O)(=O)O)ccc3n2CC)sc2cc(S(=O)(=O)O)ccc21 [ABTS]
